Assays:
[1] = target: T1, AMPA receptor (human GluR1 flip/stargazin expressed in CHO-K1 cells) (Homo sapiens, UniProt P42261); assay: AMPA receptor function enhancing activity using calcium influx as index; type: cell-based; conditions: 100% = 3 mM glutamic acid + 300 μM cyclothiazide, 0% = 3 mM glutamic acid only
T1 construct: expressed in transfected cells; host or cells: CHO-K1
Method in brief: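 CHO-K1 clone stably co-expressing human GluR1 flip and stargazin, loaded with Calcium 4 dye plus probenecid. Compound at 30 μM was added with glutamate (3 mM final) and fluorescence change followed over 3 min. Activity is expressed as % of the 3 mM glutamate plus 300 μM cyclothiazide response, with glutamate alone as 0%.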

[2] = test compound 30 μM with glutamic acid final 3 mM, change in fluorescence in 3 min
[3] = test compound 30 μM with 3 mM glutamic acid, change in fluorescence level in 3 min

T1 sequence (P42261 19-906 isoform P42261-2 limits assumed): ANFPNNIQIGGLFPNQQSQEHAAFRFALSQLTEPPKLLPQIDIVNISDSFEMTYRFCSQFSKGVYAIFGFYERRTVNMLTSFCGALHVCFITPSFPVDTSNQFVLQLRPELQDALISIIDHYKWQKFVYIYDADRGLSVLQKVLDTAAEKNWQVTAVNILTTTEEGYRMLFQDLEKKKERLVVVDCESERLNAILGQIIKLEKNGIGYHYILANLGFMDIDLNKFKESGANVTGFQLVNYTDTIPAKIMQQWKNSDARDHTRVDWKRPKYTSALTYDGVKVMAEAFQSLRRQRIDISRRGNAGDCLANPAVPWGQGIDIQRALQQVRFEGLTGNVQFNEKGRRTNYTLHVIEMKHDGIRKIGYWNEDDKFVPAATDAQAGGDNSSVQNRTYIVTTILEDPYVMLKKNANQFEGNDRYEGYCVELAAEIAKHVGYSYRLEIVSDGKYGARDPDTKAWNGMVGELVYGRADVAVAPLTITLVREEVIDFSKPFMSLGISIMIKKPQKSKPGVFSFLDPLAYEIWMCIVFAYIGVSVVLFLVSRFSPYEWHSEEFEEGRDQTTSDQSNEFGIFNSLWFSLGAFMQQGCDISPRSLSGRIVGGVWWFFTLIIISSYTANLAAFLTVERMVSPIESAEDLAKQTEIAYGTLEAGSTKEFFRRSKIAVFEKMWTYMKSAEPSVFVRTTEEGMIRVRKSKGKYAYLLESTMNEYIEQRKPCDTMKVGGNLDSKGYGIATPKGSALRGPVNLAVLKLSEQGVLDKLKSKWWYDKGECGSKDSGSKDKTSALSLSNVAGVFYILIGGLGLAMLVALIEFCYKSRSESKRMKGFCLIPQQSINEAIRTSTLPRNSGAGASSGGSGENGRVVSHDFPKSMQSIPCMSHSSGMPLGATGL
T1 sequence (Q9Y698 whole entry partner): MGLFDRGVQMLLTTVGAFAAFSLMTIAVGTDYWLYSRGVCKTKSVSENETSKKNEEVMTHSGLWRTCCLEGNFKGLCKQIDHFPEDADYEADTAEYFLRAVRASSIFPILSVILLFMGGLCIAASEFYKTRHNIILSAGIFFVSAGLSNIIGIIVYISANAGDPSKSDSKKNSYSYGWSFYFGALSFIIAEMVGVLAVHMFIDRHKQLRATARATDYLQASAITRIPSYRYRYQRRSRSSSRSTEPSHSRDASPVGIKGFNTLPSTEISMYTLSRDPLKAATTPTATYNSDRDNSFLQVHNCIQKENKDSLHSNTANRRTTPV

| SMILES | melting point | activity (%) [1, 2] | activity (%) [1, 3] |
| --- | --- | --- | --- |
| CC(C)c1ccc(OCC2=CC=CN3CCS(=O)(=O)N=C23)cc1 [Example 61, 9-{[4-(1-methylethyl)phenoxy]methyl}-3,4-dihydropyrido[2,1-c][1,2,4]thiadiazine 2,2-dioxide] | 212 to 214 °C | 75% | – |
| O=S1(=O)CCN2CCCC(c3ccc(-c4ccccc4)cc3)C2=N1 (stereo not shown) [Example 64, 9-biphenyl-4-yl-3,4,6,7,8,9-hexahydropyrido[2,1-c][1,2,4]thiadiazine 2,2-dioxide] | 220 to 222 °C | 73% | – |
| O=S1(=O)CCN2CCCC(c3ccc(-c4ccccc4)cc3)C2=N1 (stereo not shown) [Example 65, 9-biphenyl-4-yl-3,4,6,7,8,9-hexahydropyrido[2,1-c][1,2,4]thiadiazine 2,2-dioxide] | 224 to 227 °C | 78% | – |
| O=S1(=O)CCN2C=CN=C(c3ccc(OC4CCCCC4)cc3)C2=N1 [Example 68, 9-[4-(cyclohexyloxy)phenyl]-3,4-dihydropyrazino[2,1-c][1,2,4]thiadiazine 2,2-dioxide] | 239 to 240 °C | 77% | – |
| O=S1(=O)CCN2C=CC=C(c3ccc(OCC4CCOCC4)cc3)C2=N1 [Example 69, 9-[4-(tetrahydro-2H-pyran-4-ylmethoxy)phenyl]-3,4-dihydropyrido[2,1-c][1,2,4]thiadiazine 2,2-dioxide] | 268 to 269 °C | 71% | – |
| O=S1(=O)CCN2C=C(Cl)C=C(c3ccc(OC4CCCCC4)cc3)C2=N1 [Example 73, 7-chloro-9-[4-(cyclohexyloxy)phenyl]-3,4-dihydropyrido[2,1-c][1,2,4]thiadiazine 2,2-dioxide] | 284 to 287 °C | 75% | – |
| O=S1(=O)CCN2C=CC=C(c3ccc(OCC4CCCO4)cc3)C2=N1 (stereo not shown) [Example 75, 9-[4-(tetrahydrofuran-2-ylmethoxy)phenyl]-3,4-dihydropyrido[2,1-c][1,2,4]thiadiazine 2,2-dioxide] | 222 to 223 °C | 81% | – |
| O=S1(=O)CCN2CCCC(c3ccc(Oc4ccc(C(F)(F)F)cc4)cc3)C2=N1 (stereo not shown) [Example 125, 9-{4-[4-(trifluoromethyl)phenoxy]phenyl}-3,4,6,7,8,9-hexahydropyrido[2,1-c][1,2,4]thiadiazine 2,2-dioxide] | 191 to 193 °C | 53% | – |
| Cc1ccc(C(F)(F)c2ccc(C3CCCN4CCS(=O)(=O)N=C34)cc2)cc1 (stereo not shown) [Example 137, 9-{4-[difluoro(4-methylphenyl)methyl]phenyl}-3,4,6,7,8,9-hexahydropyrido[2,1-c][1,2,4]thiadiazine 2,2-dioxide] | 190 to 191 °C | 61% | – |
| O=S1(=O)CCN2CCCC(c3ccc(Oc4ccc(Cl)cc4)cc3)C2=N1 (stereo not shown) [Example 148, 9-[4-(4-chlorophenoxy)phenyl]-3,4,6,7,8,9-hexahydropyrido[2,1-c][1,2,4]thiadiazine 2,2-dioxide] | 215 to 216 °C | – | 73% |
| O=S1(=O)CCN2CCCC(c3ccc(Oc4ccc(Cl)c(Cl)c4)cc3)C2=N1 (stereo not shown) [Example 151, 9-[4-(3,4-dichlorophenoxy)phenyl]-3,4,6,7,8,9-hexahydropyrido[2,1-c][1,2,4]thiadiazine 2,2-dioxide] | 195 to 197 °C | – | 67% |
| CC(F)(F)c1cccc(Oc2ccc(C3CCCN4CCS(=O)(=O)N=C34)cc2)c1 (stereo not shown) [Example 157, 9-{4-[3-(1,1-difluoroethyl)phenoxy]phenyl}-3,4,6,7,8,9-hexahydropyrido[2,1-c][1,2,4]thiadiazine 2,2-dioxide] | 117 to 118 °C | – | 89% |
| O=S1(=O)CCN2CCCC(c3ccc(C(F)(F)F)cc3)C2=N1 (stereo not shown) [Example 175, 9-[4-(trifluoromethyl)phenyl]-3,4,6,7,8,9-hexahydropyrido[2,1-c][1,2,4]thiadiazine 2,2-dioxide] | 226 to 227 °C | – | 53% |
| O=S1(=O)CCN2C=CC=C(c3ccc(OC4CCCCC4)cc3)C2=N1 [Example 182, 9-[4-(cyclohexyloxy)phenyl]-3,4-dihydropyrido[2,1-c][1,2,4]thiadiazine 2,2-dioxide] | 272 to 274 °C | – | 80% |
| N#Cc1ccc(Oc2ccc(C3CCCN4CCS(=O)(=O)N=C34)cc2)cc1Cl (stereo not shown) [Example 183, 2-chloro-4-[4-(2,2-dioxido-3,4,6,7,8,9-hexahydropyrido[2,1-c][1,2,4]thiadiazin-9-yl)phenoxy]benzonitrile] | 219 to 220 °C | – | 91% |
| O=S1(=O)CCN2CCCC(c3ccc(Oc4cccc(Cl)c4)cc3)C2=N1 (stereo not shown) [Example 201, 9-[4-(3-chlorophenoxy)phenyl]-3,4,6,7,8,9-hexahydropyrido[2,1-c][1,2,4]thiadiazine 2,2-dioxide] | 165 to 167 °C | – | 74% |

Continued, values first:

| melting point | activity (%) [1, 2] | activity (%) [1, 3] | SMILES |
| --- | --- | --- | --- |
| 235 to 237 °C | 72% | – | COc1ccc2ccc(OC3=CC=CN4CCS(=O)(=O)N=C34)cc2c1 [Example 59, 9-[(7-methoxynaphthalen-2-yl)oxy]-3,4-dihydropyrido[2,1-c][1,2,4]thiadiazine 2,2-dioxide] |
| 174 to 175 °C | 77% | – | O=S1(=O)CCN2CCC[C@@H](c3ccc(Oc4ccccc4)cc3)C2=N1 [Example 63, (9S)-9-(4-phenoxyphenyl)-3,4,6,7,8,9-hexahydropyrido[2,1-c][1,2,4]thiadiazine 2,2-dioxide] |
| 258 to 259 °C | 68% | – | CC(C)(C)COc1ccc(C2=CC=CN3CCS(=O)(=O)N=C23)cc1 [Example 67, 9-[4-(2,2-dimethylpropoxy)phenyl]-3,4-dihydropyrido[2,1-c][1,2,4]thiadiazine 2,2-dioxide] |
| 264 to 265 °C | 72% | – | O=S1(=O)CCN2C=C(Cl)C=C(c3ccc(Oc4ncccc4C(F)(F)F)cc3)C2=N1 [Example 78, 7-chloro-9-(4-{[3-(trifluoromethyl)pyridin-2-yl]oxy}phenyl)-3,4-dihydropyrido[2,1-c][1,2,4]thiadiazine 2,2-dioxide] |
| 239 to 240 °C | 90% | – | O=S1(=O)CCN2C=C(Cl)C=C(c3ccc(Oc4ccnc(C(F)(F)F)c4)cc3)C2=N1 [Example 79, 7-chloro-9-(4-{[2-(trifluoromethyl)pyridin-4-yl]oxy}phenyl)-3,4-dihydropyrido[2,1-c][1,2,4]thiadiazine 2,2-dioxide] |
| 248 to 249 °C | 86% | – | O=S1(=O)CCN2C=C(Cl)C=C(c3ccc(Oc4ccccc4)cc3)C2=N1 [Example 81, 7-chloro-9-(4-phenoxyphenyl)-3,4-dihydropyrido[2,1-c][1,2,4]thiadiazine 2,2-dioxide] |
| 248 to 249 °C | 69% | – | Cc1ccc(Oc2ccc(C3=CC=CN4CCS(=O)(=O)N=C34)cc2)cc1 [Example 107, 9-[4-(4-methylphenoxy)phenyl]-3,4-dihydropyrido[2,1-c][1,2,4]thiadiazine 2,2-dioxide] |
| 240 to 242 °C | – | 76% | Cc1cc(F)ccc1Oc1ccc(C2=CC=CN3CCS(=O)(=O)N=C23)cc1 [Example 143, 9-[4-(4-fluoro-2-methylphenoxy)phenyl]-3,4-dihydropyrido[2,1-c][1,2,4]thiadiazine 2,2-dioxide] |
| 232 to 234 °C | – | 70% | O=S1(=O)CCN2C=CC=C(c3ccc(Oc4ccc(Cl)cc4)cc3)C2=N1 [Example 147, 9-[4-(4-chlorophenoxy)phenyl]-3,4-dihydropyrido[2,1-c][1,2,4]thiadiazine 2,2-dioxide] |
| 244 to 245 °C | – | 74% | O=S1(=O)CCN2C=CC=C(c3ccc(Oc4ccccc4)nc3)C2=N1 [Example 191, 9-(6-phenoxypyridin-3-yl)-3,4-dihydropyrido[2,1-c][1,2,4]thiadiazine 2,2-dioxide] |
| 289 to 290 °C | – | 87% | O=S1(=O)CCN2C=CC=C(c3ccc(Oc4ccc(O)cc4)cc3)C2=N1 [Example 198, 4-[4-(2,2-dioxido-3,4-dihydropyrido[2,1-c][1,2,4]thiadiazin-9-yl)phenoxy]phenol] |
| 266 to 267 °C | – | 79% | O=S1(=O)CCN2C=CC=C(c3ccc(Oc4ccc(F)cc4)cc3)C2=N1 [Example 199, 9-[4-(4-fluorophenoxy)phenyl]-3,4-dihydropyrido[2,1-c][1,2,4]thiadiazine 2,2-dioxide] |
| 269 to 270 °C | – | 70% | COC1=C(c2ccc(Oc3ccccc3)cc2)C2=NS(=O)(=O)CCN2C=C1 [Example 204, 8-methoxy-9-(4-phenoxyphenyl)-3,4-dihydropyrido[2,1-c][1,2,4]thiadiazine 2,2-dioxide] |
| 283 to 284 °C | – | 67% | O=S1(=O)CCN2C=CC(Cl)=C(c3ccc(Oc4ccccc4)cc3)C2=N1 [Example 205, 8-chloro-9-(4-phenoxyphenyl)-3,4-dihydropyrido[2,1-c][1,2,4]thiadiazine 2,2-dioxide] |
| 91.9 to 92 °C | – | 84% | O=S1(=O)CCN2C=C(F)C=C(c3ccc(Oc4ccccc4)cc3)C2=N1 [Example 206, 7-fluoro-9-(4-phenoxyphenyl)-3,4-dihydropyrido[2,1-c][1,2,4]thiadiazine 2,2-dioxide] |
| 92 to 92.5 °C | – | 78% | CC1=CN2CCS(=O)(=O)N=C2C(c2ccc(Oc3ccccc3)cc2)=N1 [Example 207, 7-methyl-9-(4-phenoxyphenyl)-3,4-dihydropyrazino[2,1-c][1,2,4]thiadiazine 2,2-dioxide] |
